Source: patent US20240351999A1, “PYRROLYLACYLPIPERIDYLAMINE COMPOUND AND USE THEREOF” (INSTITUTE OF MATERIA MEDICA ,CHINESE ACADEMY OF MEDICAL …, priority 2021, published 2024)
≈ marks a conversion by molar mass, not a printed value.

What was measured:
[1] = tested on: Staphylococcus epidermidis MRSE 15-1; experiment: In vitro antibacterial activity (MIC), microbroth dilution; assay type: cell-based; details: 37° C., 18 h
[2] = tested on: Mycobacterium tuberculosis; experiment: Activity against Mycobacterium tuberculosis (MIC); assay type: cell-based; details: read-out: Inhibitory activity (MIC) against Mycobacterium tuberculosis
[3] = tested on: Enterococcus faecalis ATCC 51575; experiment: In vitro antibacterial activity (MIC), microbroth dilution; assay type: cell-based; details: ATCC51575, 37° C., 18 h
[4] = tested on: Clostridium difficile ATCC 9689; experiment: as above; assay type: cell-based; details: Clostridioides difficile, ATCC9689; read-out: MIC Clostridium difficile ATCC 9689
[5] = tested on: Escherichia coli ATCC25922; details: prior art value; cited from earlier work
[6] = tested on: Staphylococcus aureus ATCC 43300 (MRSA); experiment: In vitro antibacterial activity (MIC), microbroth dilution; assay type: cell-based; details: 37° C., 18 h, read-out: MIC Staphylococcus aureus ATCC 43300 (MRSA)
[7] = tested on: Enterococcus faecium EFM 19-1; experiment: as above; assay type: cell-based; details: EFM191, 37° C., 18 h
[8] = tested on: Staphylococcus aureus ATCC 29213; experiment: In vitro induced drug resistance, 20 generations at sub-MIC; assay type: cell-based; details: ATCC29213, read-out: MIC value after passage for 20 generations
Procedure: Test method: MIC values of a compound 1 and a control compound DS2969 against Staphylococcus aureus ATCC 29213 were determined by using a microbroth dilution method recommended by operating procedures for antibacterial susceptibility testing of the Clinical and Laboratory Standards Institute (CLSI).
After testing the MIC values, sub-MIC concentrations (1/2 MIC) of bacteria were diluted, and the concentration of the obtained bacterial solution was adjusted to 105 CFU/mL for a next round of MIC value testing. After 24 hours of incubation, bacterial suspensions were prepared by using bacterial suspensions at sub-MIC concentrations of drugs (1/2 MIC), and another MIC testing was performed. This process was repeated for 20 times, and the MIC value for each test was recorded.
The MIC values of the compound 1 and DS2969 inducing Staphylococcus aureus ATCC29213 for 20 generations were recorded, with the number of generations of bacteria induced as an abscissa and the MIC values as an ordinate (as shown in FIG. 1).

[9] = tested on: Acinetobacter baumannii ATCC 19606; experiment: In vitro antibacterial activity (MIC), microbroth dilution; assay type: cell-based; details: ATCC19606, 37° C., 18 h, read-out: MIC Acinetobacter baumannii ATCC 19606
[10] = tested on: Staphylococcus aureus (MRSA, ATCC 43300); experiment: Antibacterial activity in mice, sepsis model; assay type: in vivo, ICR mice; details: Staphylococcus aureus, po; MRSA ATCC 43300 sepsis model, intragastric administration at lower dose
Procedure: Experimental animals: Beijing Vital River Laboratory Animal Technology Co., Ltd., ICR mice, with a uniform body weight of 20-22 g, and half male and half female.
Model: Sepsis model infected by Staphylococcus aureus (MRSA, ATCC 43300)
Modeling method: mice were infected with […] (diluted with a 5% sterile yeast solution) Staphylococcus aureus (MRSA, ATCC 43300) such that sepsis models of mice were formed (0.5 mL of a bacterial solution was injected intraperitoneally into each mouse).
Experimental scheme: a compound 1 and a positive drug were first dissolved in DMSO, and then diluted with other solvents, wherein a solvent ratio was saline:Tween 80:DMSO=9:0.5:0.5.

[11] = tested on: Staphylococcus aureus ATCC 25923; experiment: In vitro antibacterial activity (MIC), microbroth dilution; assay type: cell-based; details: ATCC25923, 37° C., 18 h
[12] = tested on: Escherichia coli ATCC 25922; experiment: as above; assay type: cell-based; details: ATCC25922, 37° C., 18 h, read-out: MIC Escherichia coli ATCC 25922
[13] = tested on: Staphylococcus aureus ATCC 29213; details: prior art value; cited from earlier work
[14] = tested on: Staphylococcus aureus ATCC 29213; experiment: In vitro antibacterial activity (MIC), microbroth dilution; assay type: cell-based; details: ATCC29213, 37° C., 18 h
[15] = tested on: Klebsiella pneumoniae KPN-15-1; experiment: as above; assay type: cell-based; details: KPN151, 37° C., 18 h, read-out: MIC Klebsiella pneumoniae KPN-15-1
[16] = tested on: Staphylococcus aureus MRSA 15-1; experiment: as above; assay type: cell-based; details: 37° C., 18 h
[17] = tested on: Escherichia coli ATCC 35218; experiment: as above; assay type: cell-based; details: ATCC35218, 37° C., 18 h, read-out: MIC Escherichia coli ATCC 35218
[18] = tested on: Staphylococcus epidermidis ATCC 12228; experiment: as above; assay type: cell-based; details: ATCC12228, 37° C., 18 h
[19] = tested on: Pseudomonas aeruginosa ATCC 27853; experiment: as above; assay type: cell-based; details: ATCC27853, 37° C., 18 h, read-out: MIC Pseudomonas aeruginosa ATCC 27853
[20] = tested on: Escherichia coli ECO+ 15-1; experiment: as above; assay type: cell-based; details: 37° C., 18 h, read-out: MIC Escherichia coli ECO+ 15-1

CCc1[nH]c(C(=O)N[C@@H]2CCN(c3nnc(C(C)(C)O)s3)C[C@@H]2OC)nc1Cl [DS2969, reference compound]
MIC [1]: 0.5 µg/mL (≈ 1.17 µM)
MIC [2]: 0.654 µg/mL (≈ 1.52 µM)
MIC [3]: 0.5 µg/mL (≈ 1.17 µM)
MIC [4]: 0.5 µg/mL (≈ 1.17 µM)
MIC Escherichia coli ATCC25922 (background) [5]: 32 µg/mL (≈ 74.6 µM)
MIC [6]: 0.5 µg/mL (≈ 1.17 µM)
MIC [7]: 0.5 µg/mL (≈ 1.17 µM)
MIC [8]: 16 µg/mL (≈ 37.3 µM)
MIC [9]: > 64 µg/mL
ED50 [10]: > 10 mg/kg
MIC [11]: 0.5 µg/mL (≈ 1.17 µM)
MIC [12]: 32 µg/mL (≈ 74.6 µM)
MIC Staphylococcus aureus ATCC 29213 (background) [13]: 0.2 µg/mL (≈ 0.466 µM)
MIC [14]: 0.5 µg/mL (≈ 1.17 µM)
MIC [15]: > 64 µg/mL
MIC [16]: 0.5 µg/mL (≈ 1.17 µM)
MIC [17]: 32 µg/mL (≈ 74.6 µM)
MIC [18]: 0.5 µg/mL (≈ 1.17 µM)
MIC [19]: > 64 µg/mL
MIC [20]: > 64 µg/mL
